From patent US5292742A, “Angiotensin II receptor blocking 2,3,6 substituted quinazolinones” (American Cyanamid Company, priority 1993, dated 1994)

Target: T1, Angiotensin II Receptor (Bos taurus, UniProt P25104)
T1 construct: The brownish tissue forming the adrenal cortex is scraped off and finely minced with scissors before homogenization; tissue Maxwell-Cohen (local slaughter house); host or cells: beef adrenal cortex, microsomal (100,000 x g) membranes
T1 sequence (P25104 1-359): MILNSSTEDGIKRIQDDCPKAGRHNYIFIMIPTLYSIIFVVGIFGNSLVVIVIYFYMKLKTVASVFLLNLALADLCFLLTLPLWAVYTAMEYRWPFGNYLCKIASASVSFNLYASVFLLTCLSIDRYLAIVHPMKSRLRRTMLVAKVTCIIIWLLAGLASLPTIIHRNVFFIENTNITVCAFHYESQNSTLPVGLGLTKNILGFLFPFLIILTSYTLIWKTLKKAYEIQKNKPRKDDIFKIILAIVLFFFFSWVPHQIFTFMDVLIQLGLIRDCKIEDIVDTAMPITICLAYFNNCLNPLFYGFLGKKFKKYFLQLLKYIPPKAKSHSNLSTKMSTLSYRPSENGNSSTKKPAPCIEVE
Assay: [125I](Sar1,Ile8)AngII receptor binding assay, bovine adrenal cortex membranes
Conditions: beef adrenal cortex membranes
Excerpt: Beef adrenals are obtained from a local slaughter house (Maxwell-Cohen). [^125 I](Sar^1,ILe^8)-AngII, S.A. 2200 Ci/mmole, is purchased from Dupont (NEN®, Boston, Mass.). All unlabeled AngII analogs, Dimethylsulfoxide (DMSO), nucleotides, bovine serum albumin (BSA) are purchased from Sigma Chemical Co., St. Louis, MO U.S.A.
Approximately sixteen (16) to twenty (20) beef adrenal glands are processed as follows: fresh adrenal glands received on crushed ice are cleaned of fatty tissues and the tough membranes encapsulating the glands are removed and discarded. The brownish tissue forming the adrenal cortex is scraped off and finely minced with scissors before homogenization. Care is taken to avoid contamination with medullary tissue during dissection. The scraped cortices are suspended in twenty volumes of an ice-cold buffer medium consisting of 10 mM Tris.HCl (pH 7.4 at 22° C.) and containing 1.0 mM EDTA and 0.2M sucrose. Unless otherwise indicated, all subsequent operations are done at 4° C. […] The homogenate is centrifuged first at low speed (3,000 ×g) for 10 min. […] A 100 ul aliquot is withdrawn and the protein content of the preparation is determined by the Lowry's method (Lowry, O.H., Rosebrough, N.F., Farr, A.L. and Randall, R.J., Protein measurement with Folin phenol reagent. J. Biol. Chem., […], 265-275, 1951). […]

`CCCCc1nc2ccc(C3=NN4CCCCC4C3)cc2c(=O)n1Cc1ccc(-c2ccccc2-c2nnn[nH]2)cc1` (centres unmarked) [Example 11] was tested, and the IC50 was 56.4 nM.

For `CCCCc1nc2ccc(C3=NN4CCCC4C3)cc2c(=O)n1Cc1ccc(-c2ccccc2-c2nnn[nH]2)cc1` (centres unmarked) [Example 10, 2-Butyl-6-(3a,4,5,6-tetrahydro-3H-pyrrolo[1,2-b]-pyrazol-2-yl)-3-[[2'-(1H-tetrazol-5-yl)[1,1'-biphenyl]-4-yl]methyl]-4(3H)-quinazolinone], the IC50 was 102 nM.
